Laboratory results reported in patent publication US20220409643A1, “ROR Gamma T Inhibitors and Topical Uses Thereof” (Dermira, inc., priority 2019, published 2022).

The compounds below were run on IL17A (assay: skin Resident Immune Cell Assay (sRICA), Th17 model, IL17A protein in media). Conditions: 100 uM solution in 1% DMSO/OD applied topically to human skin; media collected 24 hours after Th17 activation.
Assay type: cell-based
Experimental: A skin Resident Immune Cell Assay (sRICA) was used to test compounds for reduction of IL-17A protein upregulation in the Th17 sRICA model. In this model, human surgical skin waste was cultured in a transwell system, with the dermis in contact with cell culture media and the stratum corneum exposed to air. To perform the assay, each human skin sample was defatted and dermatomed to 750μm. Next, 8 mm punch biopsies were obtained and placed in a membrane transwell. The transwells were inserted into culture wells with complete media, and a cocktail of cytokines and antibodies were added to promote skin resident immune cell polarization.
RORγt inhibitors were prepared as a 100 uM solution in 1% DMSO/OD. […] of the prepared topical solution was applied to sRICA wells prepared for topical drug evaluation. Drugs were allowed to penetrate the skin overnight, for up to 24 hours prior to Th17 activation. Media was collected 24 hours after Th17 activation for IL17A protein assessment. IL17A protein was evaluated using the Quanterix IL17A detection kit on the SiMoA platform (via CRO Translational Biosciences). There was significant upregulation of IL17A with Th17 activation. Each study was normalized to the % max of IL17A production (i.e. the average IL17A concentration of Th17 activated skin alone) was set to 100%, all other values (untreated no activation and treated samples) were obtained as a percentage of this. […]

First: COCc1ccc([C@@H](NC(=O)[C@H]2CNC(=O)C2)C(=O)Nc2cc(F)c(C(C)(C)C)c(F)c2)cc1 [(3R)-N-((1R)-2-((4-tert-butyl-3,5-difluorophenyl)amino)-1-(4-(methoxymethyl)phenyl)-2-oxoethyl)-5-oxopyrrolidine-3-carboxamide]
Second: COCc1ccc([C@@H](NC(=O)[C@@H]2CNC(=O)C2)C(=O)Nc2ccc(CC(C)(C)C)c(F)c2)cc1 [(3S)-N-((1R)-2-((4-(2,2-dimethylpropyl)-3-fluorophenyl)amino)-1-(4-(methoxymethyl)phenyl)-2-oxoethyl)-5-oxopyrrolidine-3-carboxamide]
The inhibition at 100 µM of the first is higher: 63.1% for the first, 52.9% for the second.

Going from `COCc1ccc2c(c1)CCN(C(=O)Cc1cc(O)no1)[C@H]2C(=O)Nc1ccc(C(C)(C)C)c(F)c1` [(1R)-N-(4-tert-butyl-3-fluorophenyl)-2-((3-hydroxy-1,2-oxazol-5-yl)acetyl)-6-methoxymethyl-1,2,3,4-tetrahydroisoquinoline-1-carboxamide] to `COc1ccc2c(c1)CCN(C(=O)c1cc(O)no1)[C@H]2C(=O)Nc1ccc(C(C)(C)C)c(F)c1` (stereo in doubt) [N-(4-tert-butyl-3-fluorophenyl)-2-((3-hydroxy-1,2-oxazol-5-yl)carbonyl)-6-methoxy-1,2,3,4-tetrahydroisoquinoline-1-carboxamide], the inhibition at 100 µM falls from 60.8% to 36%.

First: COCC(C)(C)c1c(F)cc(NC(=O)[C@H]2c3ccc(OC)cc3CCN2C(=O)Cc2cc(O)no2)cc1F [(1R)-N-(3,5-difluoro-4-(1-methoxy-2-methylpropan-2-yl)phenyl)-6-methoxy-2-((3-hydroxy-1,2-oxazol-5-yl)acetyl)-1,2,3,4-tetrahydro-isoquinoline-1-carboxamide]
Second: COc1ccc2c(c1)CCN(C(=O)Cc1cc(O)no1)[C@H]2C(=O)Nc1cc(F)c(C(C)(C)COCC(F)F)c(F)c1 [(1R)-N-(4-(1-(2,2-difluoroethoxy)-2-methylpropan-2-yl)-3,5-difluorophenyl)-2-((3-hydroxy-1,2-oxazol-5-yl)acetyl)-6-methoxy-1,2,3,4-tetrahydro-isoquinoline-1-carboxamide]
The inhibition at 100 µM of the first is higher: 46.3% for the first, 39.3% for the second.

Compared with `CC(C)(C)c1ccc(NC(=O)[C@H](NC(=O)C(O)C(F)(F)F)C2CCOCC2)cc1Cl` (stereo partly drawn) [N-((1R)-2-((4-tert-butyl-3-chlorophenyl)amino)-2-oxo-1-(tetrahydro-2H-pyran-4-yl)ethyl)-3,3,3-trifluoro-2-hydroxypropanamide], `COCc1ccc([C@@H](NC(=O)Cc2cc(O)no2)C(=O)Nc2ccc(C(C)(C)C)c(F)c2)cc1` [(2R)-N-(4-tert-butyl-3-fluorophenyl)-2-(((3-hydroxy-1,2-oxazol-5-yl)acetyl)amino)-2-(4-(methoxymethyl)phenyl)acetamide] is lower in inhibition at 100 µM: 71.3% for the first, 68.1% for the second.

First: COc1ccc2c(c1)CCN(C(=O)c1cc(O)no1)[C@H]2C(=O)Nc1cc(F)c(C(C)(C)COCC(F)F)c(F)c1 [(1R)-N-(4-(1-(2,2-difluoroethoxy)-2-methylpropan-2-yl)-3,5-difluorophenyl)-2-((3-hydroxy-1,2-oxazol-5-yl)carbonyl)-6-methoxy-1,2,3,4-tetarhydroisoquinoline-1-carboxamide]
Second: CCOCC(C)(C)c1c(F)cc(NC(=O)[C@H]2c3ccc(OC)cc3CCN2C(=O)c2cc(O)no2)cc1F [(1R)-N-(4-(1-ethoxy-2-methylpropan-2-yl)-3,5-difluorophenyl)-2-((3-hydroxy-1,2-oxazol-5-yl)carbonyl)-6-methoxy-1,2,3,4-tetrahydro-isoquinoline-1-carboxamide]
The inhibition at 100 µM of the first is lower: 30.3% for the first, 56.1% for the second.

First: COCc1ccc([C@@H](NC(=O)Cc2nnc(C)o2)C(=O)Nc2ccc(C(C)(C)C)c(F)c2)cc1 [(2R)-N-(4-tert-butyl-3-fluorophenyl)-2-(4-(methoxymethyl)phenyl)-2-(((5-methyl-1,3,4-oxadiazol-2-yl)acetyl)amino)acetamide]
Second: COCc1ccc([C@@H](NC(=O)Cc2cc(O)no2)C(=O)Nc2cc(F)c(C(C)(C)C)c(F)c2)cc1 [(2R)-N-(4-tert-butyl-3,5-difluorophenyl)-2-(((3-hydroxy-1,2-oxazol-5-yl)acetyl)amino)-2-(4-(methoxymethyl)phenyl)acetamide]
The inhibition at 100 µM of the first is higher: 62% for the first, 26.3% for the second.

Work on `COc1ccc2c(c1)CCN(C(=O)Cc1cc(O)no1)[C@H]2C(=O)Nc1cc(F)c(C(C)(C)COCC2CC2)c(F)c1` [(1R)-N-(4-(1-(cyclopropyl-methoxy)-2-methylpropan-2-yl)-3,5-difluorophenyl)-2-((3-hydroxy-1,2-oxazol-5-yl)acetyl)-6-methoxy-1,2,3,4-tetrahydro-isoquinoline-1-carboxamide] yielded an inhibition at 100 µM of 61.7%.

Same assay, conditions: Homo sapiens, 24 h, 100 uM solution in 1% DMSO/OD applied topically to human skin; media collected 24 hours after Th17 activation

First: COCc1ccc([C@@H](NC(=O)[C@@H]2CNC(=O)C2)C(=O)Nc2cc(F)c([Si](C)(C)C)c(F)c2)cc1 [(3S)-N-((1R)-2-((3,5-difluoro-4-(trimethylsilyl)phenyl)amino)-1-(4-(methoxymethyl)phenyl)-2-oxoethyl)-5-oxopyrrolidine-3-carboxamide]
Second: COCc1ccc([C@@H](NC(=O)[C@H]2CNC(=O)C2)C(=O)Nc2cc(F)c([Si](C)(C)C)c(F)c2)cc1 [(3R)-N-((1R)-2-((3,5-difluoro-4-(trimethylsilyl)phenyl)amino)-1-(4-(methoxymethyl)phenyl)-2-oxoethyl)-5-oxopyrrolidine-3-carboxamide]
The inhibition at 100 µM of the first is lower: 23.6% for the first, 63% for the second.

Compared with `COCc1ccc([C@@H](NC(=O)C2CCOCC2)C(=O)Nc2ccc([Si](C)(C)C)c(F)c2)cc1` [N-((1R)-2-((3-fluoro-4-(trimethylsilyl)phenyl)amino)-1-(4-(methoxymethyl)phenyl)-2-oxoethyl)tetrahydro-2H-pyran-4-carboxamide], `COCc1ccc([C@@H](NC(=O)CS(C)(=O)=O)C(=O)Nc2ccc([Si](C)(C)C)c(F)c2)cc1` [(2R)-N-(3-fluoro-4-(trimethylsilyl)phenyl)-2-(4-(methoxymethyl)phenyl)-2-(((methylsulfonyl)acetyl)amino)acetamide] is higher in inhibition at 100 µM: -20.1% for the first, 31.3% for the second.

Compared with `COc1ccc2c(n1)CCN(C(=O)CCCC(=O)O)[C@H]2C(=O)Nc1ccc([Si](C)(C)C)c(F)c1` [5-((5R)-5-((3-fluoro-4-(trimethylsilyl)phenyl)carbamoyl)-2-methoxy-7,8-dihydro-1,6-naphthyridin-6(5H)-yl)-5-oxopentanoic acid], `COc1ccc2c(c1)CCN(C(=O)c1cc(O)no1)[C@H]2C(=O)Nc1ccc([Si](C)(C)C)c(F)c1` (stereo in doubt) [N-(3-fluoro-4-(trimethylsilyl)phenyl)-2-((3-hydroxy-1,2-oxazol-5-yl)carbonyl)-6-methoxy-1,2,3,4-tetrahydroisoquinoline-1-carboxamide] is lower in inhibition at 100 µM: 51.5% for the first, 7.69% for the second.

Going from `COc1ccc([C@@H](NC(=O)[C@H]2CNC(=O)C2)C(=O)Nc2ccc([Si](C)(C)C)c(F)c2)cc1` [(3R)-N-((1R)-2-((3-fluoro-4-(trimethylsilyl)phenyl)amino)-1-(4-(methoxy)phenyl)-2-oxoethyl)-5-oxopyrrolidine-3-carboxamide] to `COCc1ccc([C@@H](NC(=O)CCS(C)(=O)=O)C(=O)Nc2ccc([Si](C)(C)C)c(F)c2)cc1` [N-((1R)-2-((3-fluoro-4-(trimethylsilyl)phenyl)amino)-1-(4-(methoxymethyl)phenyl)-2-oxoethyl)-3-(methylsulfonyl)propanamide], the inhibition at 100 µM rises from 65.2% to 67.4%.

Compared with `COCc1ccc([C@@H](NC(=O)Cn2cnccc2=O)C(=O)Nc2cc(F)c([Si](C)(C)C)c(F)c2)cc1` [(2R)-N-(3,5-difluoro-4-(trimethylsilyl)phenyl)-2-(4-(methoxymethyl)phenyl)-2-(((6-oxopyrimidin-1(6H)-yl)acetyl)amino)acetamide], `COCc1ccc([C@@H](NC(=O)Cn2ccc(=O)cc2)C(=O)Nc2ccc([Si](C)(C)C)c(F)c2)cc1` is lower in inhibition at 100 µM: 80% for the first, 78.4% for the second.

First: COCc1ccc([C@@H](NC(=O)Cc2nnc(C)o2)C(=O)Nc2cc(F)c([Si](C)(C)C)cc2F)cc1 [(2R)-N-(2,5-difluoro-4-(trimethylsilyl)phenyl)-2-(4-(methoxymethyl)phenyl)-2-(((5-methyl-1,3,4-oxadiazol-2-yl)acetyl)amino)acetamide]
Second: COCc1ccc([C@@H](NC(=O)Cc2nnc(C)o2)C(=O)Nc2ccc([Si](C)(C)C)c(F)c2)cc1 [(2R)-N-(3-fluoro-4-(trimethylsilyl)phenyl)-2-(4-(methoxymethyl)phenyl)-2-(((5-methyl-1,3,4-oxadiazol-2-yl)acetyl)amino)acetamide]
The inhibition at 100 µM of the first is higher: 75.7% for the first, 35.5% for the second.

Compared with `COCc1ccc2c(n1)CCN(C(=O)c1cc(O)no1)[C@H]2C(=O)Nc1cc(F)c([Si](C)(C)C)c(F)c1` [(5R)-N-(3,5-difluoro-4-(trimethylsilyl)phenyl)-6-((3-hydroxy-1,2-oxazol-5-yl)carbonyl)-2-(methoxymethyl)-5,6,7,8-tetrahydro-1,6-naphthyridine-5-carboxamide], `CC[Si](C)(C)c1c(F)cc(NC(=O)[C@H]2c3ccc(COC)nc3CCN2C(=O)Cc2cc(O)no2)cc1F` is higher in inhibition at 100 µM: -15.5% for the first, 68.9% for the second.

With `COCc1ccc([C@@H](NC(=O)CNC(C)=O)C(=O)Nc2ccc([Si](C)(C)C)c(F)c2)cc1` the inhibition at 100 µM was 48.8%.
